Test results reported in US10646478B2, “Methods for treatment of melanoma” (CHILDREN'S MEDICAL CENTER CORPORATION, priority 2011, dated 2020).

Tests used:
[1] = tested on: gene expression (123-gene melanoma signature); assay: Microarray analysis of leflunomide treated zebrafish embryos; type: in vivo
[2] = tested on: neural crest stem cells (NCSCs) from fetal (E14.5) rat gut; assay: Rat neural crest stem cell assays (self-renewal, colony size, differentiation); type: cell-based
Description: Enteric NCSCs from the fetal (E14.5) rat gut were isolated using flow cytometry to select the 1%-2% of cells expressing the highest levels p75 and α4 integrin as previously described^9. Cells were plated at clonal density in two wells/treatment and cultured in self-renewal medium for 8 days in LEF, A771726 or the vehicle (DMSO) followed by differentiation medium+/−LEF, A771726 or DMSO for 6 days. Cultures were fixed in 4% PFA then stained with antibodies against peripherin, GFAP, and SMA to identify neurons (N), glia (G) and myofibroblasts (M) respectively (U=unstained cells). A total of 3 to 4 independent experiments were performed, and differences measured by ANOVA followed by Bonferonni posthoc comparison. Self-renewal medium contains: DMEM-low glucose, 15% Chick Embryo Extract (CEE), Penn/Strep (P/S), 1% N2 supplement, 2% B27 supplement, 110 nM Retinoic Acid, 50 μM 2-mercaptoethanol 20 ng/ml bFGF, and 20 ng/ml IGF-1. Differentiation medium is the same except it contains 1% CEE, 10 ng/ml bFGF and no IGF-1. Differences between groups were calculated using ANOVA followed by posthoc Sheffe.
Dissociated fetal rat gut cells were plated at clonal density in non-adherent conditions in self-renewal medium with LEF, a77 or DMSO for 10 days^10. Three to five primary neurospheres per treatment were individually re-plated in adherent conditions with LEF, a77 or DMSO and after three days were dissociated into a single cell suspension using trypsin and collagenase IV. Dissociated cells from each neurosphere were re-plated in non-adherent conditions without LEF or a77 and after 10 days, the number of secondary neurospheres were counted and compared. To assess the number of multipotent primary and secondary neurospheres, a subset of neurospheres were plated adherently for 8 days in self-renewal medium followed by 6 days in differentiation medium. Cultures were fixed in 4% PFA and stained with antibodies against peripherin, GFAP, and SMA to identify neurons (N), glia (G) and myofibroblasts (M) respectively. A total of 5 independent experiments were analyzed, and the number of multipotent secondary neurospheres on a given day are normalized to the DMSO control wells, and differences calculated by ANOVA.

[3] = tested on: M481 cells; assay: Cell viability of primary human melanoma cells M481; type: cell-based; conditions: FIG. 28a
Text: FIG. 28a, M481 cells. FIG. 28b, A375 cells. FIG. 28c, M405 cells. FIG. 28d, M528 cells. FIG. 28e, M715 cells.

[4] = arthritis patients; cited from earlier work

## Cc1oncc1C(=O)Nc1ccc(C(F)(F)F)cc1 [leflunomide]
[1]; 6.5 uM, 50% epiboly to 24 hpf, 2-fold
  number of genes upregulated: 60 genes
[1]; leflunomide treated embryos
  genes upregulated in the 123-gene melanoma signature that are downregulated: 49%
[2]
  colony size reduced compared to controls: 18%
  differentiation or survival of specific progeny: no effect on differentiation or survival of specific progeny
  number of self-renewing NCSCs from primary stem cell colonies: 27+/−5.35 % of controls
[3]
  cell survival of M481 cells: impair cell survival
[4]
  treatment-related adverse event more prevalent than with placebo: elevation of liver transaminase
